Source: ChEMBL document CHEMBL3885861, “Open TG-GATES”

Species: Rattus norvegicus
Assay: Open TG-GATES - Regimen: Daily Repeat
Assay type: toxicity, organism-based, Sprague-Dawley
Set-up: regimen Daily Repeat, gender Male, age 6 weeks
Conditions: in vivo, po, 30 mg/kg, […], route gavage, dose level Middle; for KIDNEY_L / KIDNEY_R / KIDNEY_TOTAL: tissue Kidney; for LIVER: tissue Liver; for A/G / ALP / ALT / AST / BUN / CRE / Ca / Cl / DBIL / GLC / IP / K / LDH / Na / PL / RALB / TBIL / TC / TG / TP / gamma-GTP: tissue Plasma

## CCCc1cc(=O)[nH]c(=S)[nH]1 [PROPYLTHIOURACIL]
Tissue Blood, time 28 day
  Lym: 85.2%
  MCH: 19.5 pg
  MCHC: 33.7%
  MCV: 57.7 fL
  Mono: 3%
  Neu: 10.8%
  PT: 14.2 s
  Plat: 82.1 x10_4/uL
  RBC: 813.2 x10_4/ul
  Ret: 0.6%
  WBC: 63 x10_2/uL
Time 7 day
  KIDNEY_L: 0.9 g
  KIDNEY_R: 0.9 g
  KIDNEY_TOTAL: 1.8 g
  LIVER: 12.4 g
  A/G: 1.7
  ALP: 735.2 IU/L
  ALT: 31.6 IU/L
  AST: 54.8 IU/L
  BUN: 21.8 mg/dL
  CRE: 0.5 mg/dL
  Ca: 11.6 mg/dL
  Cl: 106 meq/L
  DBIL: 0.018 mg/dL
  GLC: 173.6 mg/dL
  IP: 6.8 mg/dL
  K: 4.6 meq/L
  LDH: 85.8 IU/L
  Na: 140.6 meq/L
  PL: 170.6 mg/dL
  RALB: 4.2 g/dL
  TBIL: 0.3 mg/dL
  TC: 111.2 mg/dL
  TG: 80.2 mg/dL
  TP: 6.7 g/dL
  gamma-GTP: 2.2 IU/L
Time 14 day
  KIDNEY_L: 0.9 g
  KIDNEY_R: 0.9 g
  KIDNEY_TOTAL: 1.9 g
  LIVER: 11.5 g
  A/G: 1.7
  ALP: 562.2 IU/L
  ALT: 27.6 IU/L
  AST: 51.2 IU/L
  BUN: 24.2 mg/dL
  CRE: 0.7 mg/dL
  Ca: 11.5 mg/dL
  Cl: 106.8 meq/L
  DBIL: 0.004 mg/dL
  GLC: 180.6 mg/dL
  IP: 6.4 mg/dL
  K: 4 meq/L
  LDH: 70.2 IU/L
  Na: 141.4 meq/L
  PL: 157.4 mg/dL
  RALB: 4.3 g/dL
  TBIL: 0.2 mg/dL
  TC: 103 mg/dL
  TG: 43.4 mg/dL
  TP: 6.9 g/dL
  gamma-GTP: 2.2 IU/L
Time 28 day
  KIDNEY_L: 0.8 g
  KIDNEY_R: 0.8 g
  KIDNEY_TOTAL: 1.6 g
  LIVER: 9.6 g
  A/G: 2
  ALP: 475.4 IU/L
  ALT: 34 IU/L
  AST: 58.4 IU/L
  BUN: 27.2 mg/dL
  CRE: 0.7 mg/dL
  Ca: 10.8 mg/dL
  Cl: 108.8 meq/L
  DBIL: 0.062 mg/dL
  GLC: 168.6 mg/dL
  IP: 5.4 mg/dL
  K: 4.3 meq/L
  LDH: 71.4 IU/L
  Na: 142.2 meq/L
  PL: 165.8 mg/dL
  RALB: 4.5 g/dL
  TBIL: 0.2 mg/dL
  TC: 105.4 mg/dL
  TG: 46.8 mg/dL
  TP: 6.8 g/dL
  gamma-GTP: 2.4 IU/L
